The text below walks through data of PMC11167047 (Cell Death Discovery, 2024).

Common to all, as to assay: kinome screen (33PanQinase)
Type in all cases: biochemical

For one test, the target named is T1, IKKα (Homo sapiens, UniProt O15111).
T1 construct: purchased Reaction Biology Europe GmbH (formerly ProQinase)
T1 sequence (O15111 1-745): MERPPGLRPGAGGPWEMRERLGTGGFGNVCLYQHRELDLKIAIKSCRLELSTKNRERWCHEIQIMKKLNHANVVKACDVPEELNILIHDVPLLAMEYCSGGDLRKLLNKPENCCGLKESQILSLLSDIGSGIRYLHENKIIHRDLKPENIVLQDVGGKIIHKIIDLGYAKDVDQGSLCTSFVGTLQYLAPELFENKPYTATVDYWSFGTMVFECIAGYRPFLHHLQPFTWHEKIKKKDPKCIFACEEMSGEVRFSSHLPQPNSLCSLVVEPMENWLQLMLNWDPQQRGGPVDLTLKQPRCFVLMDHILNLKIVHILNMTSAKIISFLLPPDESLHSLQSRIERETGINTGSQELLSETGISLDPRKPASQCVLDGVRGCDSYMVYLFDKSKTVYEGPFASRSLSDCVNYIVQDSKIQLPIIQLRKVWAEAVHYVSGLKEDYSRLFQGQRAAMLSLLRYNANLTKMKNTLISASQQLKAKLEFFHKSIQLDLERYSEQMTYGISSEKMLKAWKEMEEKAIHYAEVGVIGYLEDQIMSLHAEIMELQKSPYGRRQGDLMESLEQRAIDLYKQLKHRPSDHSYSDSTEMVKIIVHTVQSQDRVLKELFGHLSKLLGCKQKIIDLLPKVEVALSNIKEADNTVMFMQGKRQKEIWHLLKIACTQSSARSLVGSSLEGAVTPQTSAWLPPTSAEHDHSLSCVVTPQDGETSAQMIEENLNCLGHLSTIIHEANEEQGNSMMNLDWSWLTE
Here is the method:
(§1) The Kinome Screening was performed by Reaction Biology Europe GmbH (http://reactionbiology.com; Freiburg i. Br., Germany).

The target of another test is T2, BLK (Homo sapiens, UniProt P51451).
T2 construct: purchased Reaction Biology Europe GmbH (formerly ProQinase)
T2 sequence (P51451 whole entry): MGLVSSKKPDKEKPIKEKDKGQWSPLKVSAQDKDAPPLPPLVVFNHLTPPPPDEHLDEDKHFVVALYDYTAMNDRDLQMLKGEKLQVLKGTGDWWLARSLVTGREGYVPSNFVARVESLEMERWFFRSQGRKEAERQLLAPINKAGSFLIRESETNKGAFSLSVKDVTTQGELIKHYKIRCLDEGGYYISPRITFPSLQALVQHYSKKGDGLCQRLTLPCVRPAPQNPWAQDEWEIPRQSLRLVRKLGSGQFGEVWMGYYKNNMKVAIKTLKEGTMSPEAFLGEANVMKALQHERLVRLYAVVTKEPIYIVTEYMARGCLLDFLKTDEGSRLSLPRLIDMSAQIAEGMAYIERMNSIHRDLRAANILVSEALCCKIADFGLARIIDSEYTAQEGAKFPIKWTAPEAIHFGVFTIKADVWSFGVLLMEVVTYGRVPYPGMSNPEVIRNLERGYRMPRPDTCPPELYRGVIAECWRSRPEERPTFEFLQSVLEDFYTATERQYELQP
Here is the method: as §1

A further test addresses T3, TLK1 (Homo sapiens, UniProt Q9UKI8).
T3 construct: purchased Reaction Biology Europe GmbH (formerly ProQinase)
T3 sequence (Q9UKI8 1-766): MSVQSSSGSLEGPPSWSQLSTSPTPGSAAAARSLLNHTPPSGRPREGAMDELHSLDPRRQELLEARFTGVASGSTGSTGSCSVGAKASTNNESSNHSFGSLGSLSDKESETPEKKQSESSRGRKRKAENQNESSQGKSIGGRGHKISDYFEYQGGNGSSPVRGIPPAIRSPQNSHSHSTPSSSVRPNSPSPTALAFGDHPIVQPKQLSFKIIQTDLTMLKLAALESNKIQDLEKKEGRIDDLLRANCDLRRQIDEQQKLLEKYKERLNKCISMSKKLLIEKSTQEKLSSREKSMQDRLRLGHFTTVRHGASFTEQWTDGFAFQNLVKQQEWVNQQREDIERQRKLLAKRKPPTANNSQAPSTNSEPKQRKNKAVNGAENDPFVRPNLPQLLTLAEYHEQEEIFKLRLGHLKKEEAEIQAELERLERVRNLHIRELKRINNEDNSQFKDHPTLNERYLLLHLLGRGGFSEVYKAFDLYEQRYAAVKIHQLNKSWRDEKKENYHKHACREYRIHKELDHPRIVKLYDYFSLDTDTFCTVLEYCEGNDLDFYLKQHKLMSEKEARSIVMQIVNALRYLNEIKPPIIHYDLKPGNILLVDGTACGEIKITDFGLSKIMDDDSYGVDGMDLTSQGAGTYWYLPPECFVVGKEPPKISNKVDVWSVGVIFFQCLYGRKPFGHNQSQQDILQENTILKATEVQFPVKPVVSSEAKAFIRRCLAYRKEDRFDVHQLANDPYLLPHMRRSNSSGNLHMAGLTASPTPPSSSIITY
Here is the method: as §1

In a further test the target is T4, SYK (Homo sapiens, UniProt P43405).
T4 construct: purchased Reaction Biology Europe GmbH (formerly ProQinase)
Here is the method:
as §1

A further test deals with T5, DMPK (Homo sapiens, UniProt Q09013).
T5 construct: purchased Reaction Biology Europe GmbH (formerly ProQinase)
T5 sequence (Q09013 1-629): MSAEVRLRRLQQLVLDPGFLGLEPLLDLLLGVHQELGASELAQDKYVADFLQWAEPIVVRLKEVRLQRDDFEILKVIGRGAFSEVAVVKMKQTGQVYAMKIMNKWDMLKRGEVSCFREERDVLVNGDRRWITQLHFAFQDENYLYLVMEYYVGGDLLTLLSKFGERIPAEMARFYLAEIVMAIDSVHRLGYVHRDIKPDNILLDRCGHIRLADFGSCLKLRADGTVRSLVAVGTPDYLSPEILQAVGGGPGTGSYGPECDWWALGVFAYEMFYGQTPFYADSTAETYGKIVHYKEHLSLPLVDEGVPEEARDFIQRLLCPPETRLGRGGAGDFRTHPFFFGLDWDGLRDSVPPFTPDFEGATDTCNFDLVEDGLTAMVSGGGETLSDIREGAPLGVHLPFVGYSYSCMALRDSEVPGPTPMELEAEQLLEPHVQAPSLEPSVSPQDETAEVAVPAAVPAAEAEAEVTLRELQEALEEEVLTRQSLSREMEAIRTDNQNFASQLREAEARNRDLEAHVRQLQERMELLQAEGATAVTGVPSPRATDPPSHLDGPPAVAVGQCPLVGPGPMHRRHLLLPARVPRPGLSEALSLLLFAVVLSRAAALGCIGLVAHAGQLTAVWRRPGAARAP
Here is the method: as §1

The target of the next test is T6, CAMKK1 (Homo sapiens, UniProt Q8N5S9).
T6 construct: purchased Reaction Biology Europe GmbH (formerly ProQinase)
T6 sequence (Q8N5S9 whole entry): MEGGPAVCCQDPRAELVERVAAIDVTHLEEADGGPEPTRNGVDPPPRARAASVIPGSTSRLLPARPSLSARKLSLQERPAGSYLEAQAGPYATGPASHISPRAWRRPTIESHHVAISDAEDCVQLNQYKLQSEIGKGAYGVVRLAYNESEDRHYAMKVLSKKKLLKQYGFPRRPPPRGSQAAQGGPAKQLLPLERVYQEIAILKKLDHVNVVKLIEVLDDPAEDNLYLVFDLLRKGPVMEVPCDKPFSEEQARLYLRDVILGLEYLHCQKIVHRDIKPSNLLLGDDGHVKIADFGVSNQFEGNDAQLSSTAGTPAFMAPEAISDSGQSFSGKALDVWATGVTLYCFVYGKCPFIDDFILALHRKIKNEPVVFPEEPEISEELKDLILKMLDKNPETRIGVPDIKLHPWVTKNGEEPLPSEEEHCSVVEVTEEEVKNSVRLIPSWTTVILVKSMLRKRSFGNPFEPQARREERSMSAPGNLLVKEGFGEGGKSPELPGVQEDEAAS
Here is the method:
as §1

For the compound `c1ccc(CNc2cc(-c3c[nH]c4ncccc34)ccn2)cc1` [meriolin 36], the residual kinase activity on IKKα (0.3 µM) is listed as 37 % of control; at IKKα (3 µM) it was 13 % of control; on BLK (0.3 µM), 88 % of control; at BLK (3 µM) it was 13 % of control; at TLK1 (0.3 µM), 119 % of control; at TLK1 (3 µM) it was 106 % of control. Besides, the residual kinase activity is listed as 90 % of control on SYK (0.3 µM); 64 % of control on SYK (3 µM); 3 % of control at DMPK (0.3 µM); -2 % of control on DMPK (3 µM); 51 % of control on CAMKK1 (0.3 µM); 18 % of control at CAMKK1 (3 µM).
For the compound `COc1ccnc2[nH]cc(-c3cc(N)nc(N)c3)c12` [meriolin 16], the residual kinase activity is 27 % of control on IKKα (0.03 µM); 16 % of control at IKKα (0.3 µM); 126 % of control at BLK (0.03 µM); 95 % of control on BLK (0.3 µM); 98 % of control at TLK1 (0.03 µM); 89 % of control on TLK1 (0.3 µM). Further, the residual kinase activity is 93 % of control on SYK (0.03 µM); 84 % of control on SYK (0.3 µM); 86 % of control on DMPK (0.03 µM); 63 % of control at DMPK (0.3 µM); 97 % of control on CAMKK1 (0.03 µM); 95 % of control at CAMKK1 (0.3 µM).
